{"source": "paper PMC7354631", "about": "(Toxins, 2020)", "key": {"[1]": {"tested_on": "Sudlow’s site II of human serum albumin (HSA)", "details": "cited from earlier work"}, "[2]": {"target": "Sudlow’s site I of human serum albumin (HSA) (Homo sapiens, UniProt P02768)", "sequence (P02768 25-609)": "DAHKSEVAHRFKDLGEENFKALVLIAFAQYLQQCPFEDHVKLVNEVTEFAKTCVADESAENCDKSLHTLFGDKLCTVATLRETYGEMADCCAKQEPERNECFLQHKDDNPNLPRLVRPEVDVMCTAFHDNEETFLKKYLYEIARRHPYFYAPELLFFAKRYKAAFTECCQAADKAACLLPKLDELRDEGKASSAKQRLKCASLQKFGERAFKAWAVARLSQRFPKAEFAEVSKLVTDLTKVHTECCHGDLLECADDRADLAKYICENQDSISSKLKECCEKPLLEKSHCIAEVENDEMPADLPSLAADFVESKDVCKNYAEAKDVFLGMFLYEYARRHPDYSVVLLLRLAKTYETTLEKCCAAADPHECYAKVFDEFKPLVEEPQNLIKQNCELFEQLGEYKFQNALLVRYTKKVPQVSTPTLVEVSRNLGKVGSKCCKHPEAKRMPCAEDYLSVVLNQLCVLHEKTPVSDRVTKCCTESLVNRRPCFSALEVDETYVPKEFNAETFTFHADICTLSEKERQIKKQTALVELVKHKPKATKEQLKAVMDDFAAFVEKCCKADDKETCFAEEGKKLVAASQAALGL", "assay_type": "binding", "details": "for warfarin concentration in the filtrate (displacement from site I): pH 7.4"}, "[3]": {"target": "T1, human serum albumin (HSA) (Homo sapiens, UniProt P02768)", "T1 sequence (P02768 25-609)": "as above", "assay": "biochemical", "assay_type": "binding"}, "[4]": {"target": "T1, human serum albumin (HSA)", "assay_type": "binding"}, "[5]": {"target": "T1, human serum albumin (HSA)", "assay": "biochemical", "assay_type": "binding", "remark": "listed apart in the source"}, "[6]": {"target": "T1, human serum albumin (HSA)", "assay_type": "binding", "remark": "listed apart in the source"}, "bovine serum albumin": {"tested_on": "bovine serum albumin", "details": "cited from earlier work"}, "[7]": {"target": "T1, human serum albumin (HSA)", "details": "cited from earlier work"}, "[8]": {"details": "Ka (±SEM) (Hyperquad, Figure 3)"}, "[9]": {"details": "association constant of ochratoxin–HSA complex (approximate, summary)"}}, "note": "Where two headings read alike, the source gives them in different places. Marks after values point to notes of the source that are not given here."}
{"smiles": "O=c1cc(-c2ccccc2)oc2c(O)c(O)ccc12", "note": "[7,8-dihydroxyflavone]", "values": [{"measurement": "displacement of naproxen from HSA", "setting": "[1]", "value": "statistically significant displacement"}]}
{"smiles": "CC(=O)OC[C@]12C[C@H](OC(=O)CC(C)C)C(C)=C[C@H]1O[C@@H]1[C@H](O)[C@@H](OC(C)=O)[C@@]2(C)[C@]12CO2", "note": "[T2, T-2 toxin]", "values": [{"measurement": "warfarin concentration in the filtrate (displacement from site I)", "setting": "[2]", "value": "did not alter"}, {"measurement": "effect on the fluorescence emission of HSA", "setting": "[3]", "value": "did not modify"}, {"measurement": "difference of far-UV CD curves of free HSA and HSA+toxin (secondary structure)", "setting": "[4]", "value": "no significant difference"}, {"measurement": "modification of the near-UV CD spectrum of HSA (245–340 nm)", "setting": "[4]", "value": "unambiguous and relevant spectral modifications could not be registered"}, {"measurement": "effect of 10% FBS on the mycotoxin-induced viability loss / toxic effect", "setting": "HepG2 cells", "value": "did not affect"}, {"measurement": "effect of 40 g/L HSA on the toxic effect of the mycotoxin", "setting": "HepG2 cells", "value": "did not affect"}, {"measurement": "relative cytotoxicity", "setting": "HepG2 cells", "value": "considerably higher compared to PAT or DON"}]}
{"smiles": "C[C@@H]1Cc2ccc(C(=O)N[C@@H](Cc3ccccc3)C(=O)O)c(O)c2C(=O)O1", "note": "[OTB, ochratoxin B]", "values": [{"measurement": "location of the high-affinity binding site on HSA", "setting": "[2]", "value": "subdomain IIA"}, {"measurement": "warfarin concentration in the filtrate (displacement from site I)", "setting": "[2]", "value": "significantly increased"}, {"measurement": "HSA concentration enough to achieve complete albumin binding", "setting": "[5]", "value": "5 to 7", "unit": "µM"}, {"measurement": "emission signal of the ochratoxin with elevation of HSA concentration", "setting": "[5]", "value": "significantly increased"}, {"measurement": "Kd", "setting": "[5]; [8]", "value": 725, "unit": "nM"}, {"measurement": "Kd", "setting": "[5]; [9]", "value": "~1000", "unit": "nM"}, {"measurement": "effect on the emission signal of HSA at 340 nm", "setting": "[3]", "value": "decreased"}, {"measurement": "KSV (±SEM) (Stern–Volmer Plot, Figure 2)", "setting": "[3]; pH 7.4", "value": "0.57 ± 0.05 ×10^6 L/mol"}, {"measurement": "effect of 10% FBS on the mycotoxin-induced viability loss / toxic effect", "setting": "HepG2 cells", "value": "significantly reduced"}, {"measurement": "effect of the mycotoxin on cellular ATP levels in the presence of 40 g/L HSA", "setting": "HepG2 cells", "value": "did not affect"}, {"measurement": "relative cytotoxicity", "setting": "HepG2 cells", "value": "considerably lower toxicity than OTC"}, {"measurement": "fluorescence anisotropy in the presence of HSA", "setting": "[6]", "value": "strongly increased"}]}
{"smiles": "O=c1cc(-c2ccccc2)oc2cc(O)cc(O)c12", "note": "[chrysin]", "values": [{"measurement": "displacement of naproxen from HSA", "setting": "[1]", "value": "statistically significant displacement"}]}
{"smiles": "O=C1C=C2C(=CCOC2O)O1", "note": "(centres unmarked) [PAT, Patulin]", "values": [{"measurement": "warfarin concentration in the filtrate (displacement from site I)", "setting": "[2]", "value": "did not alter"}, {"measurement": "Kd", "setting": "[3]", "value": 72500, "unit": "nM"}, {"measurement": "effect on the fluorescence emission of HSA", "setting": "[3]", "value": "slightly decreased"}, {"measurement": "KSV (Stern–Volmer quenching constant)", "setting": "[3]; pH 7.4", "value": "8.23 × 10^3 (±1.12 × 10^3) L/mol"}, {"measurement": "interaction with bovine serum albumin", "setting": "bovine serum albumin", "value": "weak interaction"}, {"measurement": "induced CD features on HSA binding", "setting": "[4]", "value": "no induced CD features were observed"}, {"measurement": "UV spectral changes in the presence of HSA", "setting": "[4]; pH 7.4", "value": "some UV spectral changes could be noticed"}, {"measurement": "effect of 10% FBS on the mycotoxin-induced viability loss / toxic effect", "setting": "HepG2 cells", "value": "did not affect"}, {"measurement": "effect of 40 g/L HSA on the toxic effect of the mycotoxin", "setting": "HepG2 cells", "value": "did not affect"}, {"measurement": "KSV of the complex with HSA", "setting": "[7]", "value": 14000, "unit": "L/mol"}]}
{"smiles": "CCOC(=O)[C@H](Cc1ccccc1)NC(=O)c1cc(Cl)c2c(c1O)C(=O)O[C@H](C)C2", "note": "[OTC, ochratoxin C]", "values": [{"measurement": "location of the high-affinity binding site on HSA", "setting": "[2]", "value": "subdomain IIA"}, {"measurement": "warfarin concentration in the filtrate (displacement from site I)", "setting": "[2]", "value": "significantly increased"}, {"measurement": "HSA concentration enough to achieve complete albumin binding", "setting": "[5]", "value": "2 to 3", "unit": "µM"}, {"measurement": "emission signal of the ochratoxin with elevation of HSA concentration", "setting": "[5]", "value": "significantly increased"}, {"measurement": "Kd", "setting": "[5]; [8]", "value": 62.4, "unit": "nM"}, {"measurement": "Kd", "setting": "[5]; [9]", "value": "~100", "unit": "nM"}, {"measurement": "effect on the emission signal of HSA at 340 nm", "setting": "[3]", "value": "decreased"}, {"measurement": "KSV (±SEM) (Stern–Volmer Plot, Figure 2)", "setting": "[3]; pH 7.4", "value": "0.46 ± 0.06 ×10^6 L/mol"}, {"measurement": "effect of 10% FBS on the mycotoxin-induced viability loss / toxic effect", "setting": "HepG2 cells", "value": "abolished"}, {"measurement": "effect of the mycotoxin on cellular ATP levels in the presence of 40 g/L HSA", "setting": "HepG2 cells", "value": "did not affect"}, {"measurement": "fluorescence anisotropy in the presence of HSA", "setting": "[6]", "value": "strongly increased"}]}
{"smiles": "C[C@H]1CCCC(=O)CCC/C=C/c2cc(O)cc(O)c2C(=O)O1", "note": "[zearalenone, reference compound]", "values": [{"measurement": "Ka of the complex with HSA", "setting": "[7]", "value": 120000, "unit": "L/mol"}]}
{"smiles": "O=c1cc(-c2ccccc2)oc2cc(OS(=O)(=O)O)cc(O)c12", "note": "[chrysin-7-sulfate]", "values": [{"measurement": "displacement of naproxen from HSA", "setting": "[1]", "value": "statistically significant displacement"}]}
{"smiles": "Cc1cc(O)cc2oc(=O)c3c(O)cc(O)cc3c12", "note": "[alternariol, reference compound]", "values": [{"measurement": "Ka of the complex with HSA", "setting": "[7]", "value": 400000, "unit": "L/mol"}]}
{"smiles": "CC1=C[C@H]2O[C@@H]3[C@H](O)C[C@](C)([C@@]2(CO)[C@H](O)C1=O)[C@]31CO1", "note": "[DON, Deoxynivalenol]", "values": [{"measurement": "warfarin concentration in the filtrate (displacement from site I)", "setting": "[2]", "value": "did not alter"}, {"measurement": "effect on the fluorescence emission of HSA", "setting": "[3]", "value": "did not modify"}, {"measurement": "spectral position of the n–π* CD band in protein-free buffer vs. high molar excess of HSA", "setting": "[4]; pH 7.4", "value": "practically the same"}, {"measurement": "effect of 10% FBS on the mycotoxin-induced viability loss / toxic effect", "setting": "HepG2 cells", "value": "did not affect"}, {"measurement": "effect of 40 g/L HSA on the toxic effect of the mycotoxin", "setting": "HepG2 cells", "value": "did not affect"}, {"measurement": "association constant of the complex with HSA", "setting": "[7]", "value": "~46000", "unit": "L/mol"}, {"measurement": "quenching effect on HSA", "setting": "[7]", "value": "strong quenching effect"}]}
{"smiles": "CC1=C2C(=CO[C@H](C)[C@H]2C)C(O)=C(C(=O)O)C1=O", "note": "[citrinin, reference compound]", "values": [{"measurement": "Ka of the complex with HSA", "setting": "[7]", "value": 200000, "unit": "L/mol"}]}
